Source: patent US11560400B2, “Salts of diphosphate phosphoramidate of nucleosides as anticancer compounds” (NuCana plc, priority 2017, dated 2023)
Counter-ions that a name gives are not always drawn. Like-named read-outs stand apart in the source and are kept apart here.

Key:
[1] = in vitro; details: human, pH 7.3; for half-life: hepatocytes
[2] = system: MCF-7; experiment: CellTiterGlo cell viability assay, MCF-7; assay type: cell-based; details: Homo sapiens, MCF-7, 72 h; for EC50: absolute EC50, numeric values, read-out: Ab EC50; for inhibition at 198 µM: percentage inhibition at the highest concentration tested, read-out: Top Inhibit
In short: (§1)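 Cell viability was measured by CellTiterGlo luminescence after ~72 h compound exposure under standard growth conditions. Compounds were tested in duplicate at 9 points, 3.16-fold dilutions, final concentrations 198 μM to 19.8 nM, 0.5% DMSO final; absolute EC50 and percentage inhibition at top concentration were reported.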

[3] = system: RPMI-8226; experiment: CellTiterGlo cell viability assay, RPMI-8226; assay type: cell-based, Human
In short: as §1

[4] = system: HepG2; experiment: CellTiterGlo cell viability assay, HepG2; assay type: cell-based
In short: as §1

[5] = system: CCRF-CEM; experiment: CellTiterGlo cell viability assay, CCRF-CEM; assay type: cell-based; details: Homo sapiens, 72 h; for EC50: absolute EC50, numeric values, read-out: Ab EC50; for inhibition at 198 µM: percentage inhibition at the highest concentration tested, read-out: Top Inh
In short: as §1

[6] = system: HT29; experiment: CellTiterGlo cell viability assay, HT29; assay type: cell-based; details: Homo sapiens, HT29, 72 h; for EC50: absolute EC50, numeric values, read-out: Ab EC50; for inhibition at 198 µM: percentage inhibition at the highest concentration tested, read-out: Top Inhibit
In short: as §1

[7] = system: Mia-Pa-Ca-2; experiment: CellTiterGlo cell viability assay, Mia-Pa-Ca-2; assay type: cell-based; details: Homo sapiens, MIA PaCa-2, Mia-Pa-Ca-2, 72 h; for EC50: absolute EC50, read-out: Ab EC50; for inhibition at 198 µM: percentage inhibition at the highest concentration tested, read-out: Top Inhibit
Method: A subset of compounds of the invention were assayed for their cytotoxic activity in an array of different solid tumours and haematological malignancies using the following assay.
In vitro viability assay were performed to assess the effects of compounds on cell viability in selected cell lines over 72 h using the CellTiterGlo (CTG, Promega-G7573) assay. The tests were performed in duplicates with treatment of compounds at 9 points, 3.16 folds titration in 96 well plates over ˜72 h. The compound starting concentrations were 198 μM. Cell viability assay using CellTiterGlo in 96-well plate were performed. Compound treatment 72 h, standard growth conditions, duplicates. Compounds were dissolved to 40 mM with thawed […]. Compounds were serially diluted at 3.16 fold in thawed DMSO, and warmed to 37° C. before being dissolved in media (2 μL+200 μL). After compounds were dissolved in media, media containing compounds were warmed to 37° C. in incubator and then compounds in media were added to cell plates (50 μL+50 μL) in duplicates. The compounds' final concentrations were from 198 μM to 19.8 nM. All compound solubilities were checked and recorded again, then the plates were transferred to CO2 tissue culture incubator immediately and incubated for 3 days. DMSO final concentration is 0.5%. The parent nucleoside in each case was tested as a comparator, as was an exemplary ProTide. The drugs of the ProTide class that were tested were as follows:
The following cell lines were tested and are referred to in the Table 1 below:
In Tables 2, 3 and 4, ‘Ab EC50’ refers to the absolute EC50 and ‘Top inhibit’ refers to the percentage inhibition achieved at the highest concentration tested.

[8] = system: OVCAR 3; experiment: CellTiterGlo cell viability assay, OVCAR 3; assay type: cell-based; details: Homo sapiens; for inhibition at 198 µM: percentage inhibition at the highest concentration tested, read-out: Top Inhibit; for EC50: absolute EC50, numeric values, read-out: Ab EC50
In short: as §1

[9] = system: MOLT-4; experiment: CellTiterGlo cell viability assay, MOLT-4; assay type: cell-based; details: Homo sapiens, MOLT-4, 72 h; for inhibition at 198 µM: percentage inhibition at the highest concentration tested, read-out: Top Inh; for EC50: absolute EC50, numeric values, read-out: Ab EC50
In short: as §1

[10] = system: HL-60; experiment: CellTiterGlo cell viability assay, HL-60; assay type: cell-based; details: Homo sapiens, HL-60, 72 h; for EC50: absolute EC50, numeric values, read-out: Ab EC50; for inhibition at 198 µM: percentage inhibition at the highest concentration tested, read-out: Top Inh
In short: as §1

[11] = system: K562; experiment: CellTiterGlo cell viability assay, K562; assay type: cell-based; details: Homo sapiens, K562, 72 h; for inhibition at 198 µM: percentage inhibition at the highest concentration tested, read-out: Top Inh; for EC50: absolute EC50, numeric values, read-out: Ab EC50
In short: as §1

[12] = system: RL; experiment: CellTiterGlo cell viability assay, RL; assay type: cell-based; details: Homo sapiens, 72 h; for EC50: absolute EC50, numeric values, read-out: Ab EC50; for inhibition at 198 µM: percentage inhibition at the highest concentration tested, read-out: Top Inh
In short: as §1

[13] = Homo sapiens, RPMI-8226, 72 h, absolute EC50, numeric values, read-out: Ab EC50
[14] = Homo sapiens, RPMI-8226, 72 h, percentage inhibition at the highest concentration tested, read-out: Top Inh
[15] = Homo sapiens, HepG2, 72 h, absolute EC50, numeric values, read-out: Ab EC50
[16] = Homo sapiens, HepG2, 72 h, percentage inhibition at the highest concentration tested, read-out: Top Inhibit

SMILES	half-life [1] [min]	EC50 ([2]; MCF7, 72 h) [µM]	inhibition at 198 µM ([2]; MCF7, 72 h) [%]	EC50 [3, 13] [µM]	inhibition at 198 µM [3, 14] [%]	EC50 [4, 15] [µM]	inhibition at 198 µM [4, 16] [%]	EC50 [5] [µM]	inhibition at 198 µM [5] [%]	EC50 ([6]; HT-29, 72 h) [µM]	inhibition at 198 µM ([6]; HT-29, 72 h) [%]	EC50 [7] [µM]	inhibition at 198 µM [7] [%]	inhibition at 198 µM ([8]; OVCAR-3, 72 h) [%]	EC50 ([8]; OVCAR 3, 72 h) [µM]	inhibition at 198 µM [9] [%]	EC50 [9] [µM]	EC50 [10] [µM]	inhibition at 198 µM [10] [%]	inhibition at 198 µM [11] [%]	also measured
C[C@H](NP(=O)(Oc1cccc2ccccc12)OP(=O)(O)OC[C@H]1O[C@@H](n2cc(F)c(=O)[nH]c2=O)CC1O)C(=O)OCc1ccccc1 (stereo partly drawn) [Example 4, 5-Fluoro-2′-deoxyuridine-5′-O-[1-naphthyl-(benzoxy-L-alaninyl)] Diphosphate Triethylammonium Salt]	15	15.8	66	0.05	95	> 198	48	0.03	97.1	0.25	77	0.11	67	67.5	2.81						
C[C@H](NP(=O)(Oc1cccc2ccccc12)OP(=O)(O)OC[C@H]1O[C@@H](n2c(Cl)nc3c(N)ncnc32)[C@@H](O)C1O)C(=O)OCc1ccccc1 (stereo partly drawn) [Example 5, 8-Chloroadenosine-5′-O-[1-naphthyl-(benzoxy-L-alaninyl)]diphosphate Triethylammonium Salt]	18	1.69	88							1.41	76.5	0.43	87.6								
C[C@H](NP(=O)(Oc1ccccc1)OP(=O)(O)OC[C@@H]1C[C@H](OP(=O)(O)OP(=O)(N[C@@H](C)C(=O)OCc2ccccc2)Oc2ccccc2)[C@H](n2cnc3c(N)ncnc32)O1)C(=O)OCc1ccccc1 (stereo partly drawn) [Example 7, 3′-Deoxyadenosine-5′,2′-Bis-O-[phenyl(benzoxy-L-alaninyl)]-diphosphate Triethylammonium Salt]	27			1.6	98					7.79	79	3.32	98.9			90	25.3	6.97	100	94	EC50 [11]: 9.16 µM; EC50 [12]: 11.1 µM; inhibition at 198 µM [12]: 93%
C[C@H](NP(=O)(Oc1ccccc1)OP(=O)(O)OC[C@H]1O[C@@H](n2ccc(N)nc2=O)C(F)(F)C1O)C(=O)OCc1ccccc1 (stereo partly drawn) [Example 8, 2′-Deoxy-2′,2′-difluoro-D-cytidine-5′-O-[phenyl(benzoxy-L-alaninyl)] Diphosphate Triethylammonium Salt]	27	0.07	52			83.1	52	0.04	99.9	0.48	62	0.07	79	48.5	> 198	84	0.009	0.08	98	29	EC50 [11]: > 198 µM; EC50 [12]: 0.2 µM; inhibition at 198 µM [12]: 66.5%
O=c1[nH]c(=O)n([C@H]2C[C@H](O)[C@@H](CO)O2)cc1F [FUDR, 5-fluoro-2′-deoxyuridine, reference compound]								0.04	91.9			0.35	90		2.32						half-life at 1 μM ([1]; pooled cryopreserved hepatocytes): 69 min; EC50 ([2]; MCF7): 7.23 µM; inhibition at 198 µM ([2]; MCF7): 73%; EC50 ([3]; Homo sapiens; RPMI-8226, 72 h, absolute EC50, numeric values; read-out: Ab EC50): 0.11 µM; inhibition at 198 µM ([3]; Homo sapiens; RPMI-8226, 72 h, percentage inhibition at the highest concentration tested; read-out: Top Inh): 99%; EC50 ([4]; Homo sapiens; HepG2, 72 h, absolute EC50, numeric values; read-out: Ab EC50): 84 µM; inhibition at 198 µM ([4]; Homo sapiens; HepG2, 72 h, percentage inhibition at the highest concentration tested; read-out: Top Inhibit): 61%; EC50 ([6]; HT-29): 0.22 µM; inhibition at 198 µM ([6]; HT-29): 82%; inhibition at 198 µM ([8]; OVCAR 3, 72 h): 66%
